Assay results as given in ChEMBL document CHEMBL1149543, “Discovery of inhibitors of the pentein superfamily protein dimethylarginine dimethylaminohydrolase (DDAH), by virtual screening and hit analysis” (Bioorg Med Chem Lett, 2007).
pIC50: −log10 of the molar value.

Assay: Inhibition of Pseudomonas aeruginosa DDAH

| SMILES | pIC50 |
| --- | --- |
| O=C(Cn1cc(/C=C2\C(=O)NC(=S)N(c3ccccc3)C2=O)c2ccccc21)NCc1ccco1 | 4.77 |
| O=C(Cn1cc(C=C2C(=O)NC(=S)NC2=O)c2ccccc21)NCc1ccco1 | 5.19 |
| COc1ccc(N2C(=O)/C(=C/c3c[nH]c4ccccc34)C(=O)NC2=S)cc1 | 5.70 |
